{"source": "patent US20100284925A1", "about": "“Small Molecule Intervention for Obesity” (priority 2006, published 2010)", "key": {"[1]": {"tested_on": "C/EBPβ", "assay": "C/EBPβ response element luciferase reporter in L1 preadipocytes", "format": "cell-based", "details": "prieurianin 2 μM", "procedure": "FIG. 18. Effects of prieurianin on C/EBPα and β and PPARγ mediated transcription in adipogenesis. Response elements corresponding to C/EBPα and β and PPARγ are cloned into the pGL3 basic luciferase reporter plasmid. L1 preadipocytes were contransfected with the reporter plasmid either in the presence or the absence of the corresponding transcription factors cloned into expression vector, followed by treatment with 2 μM of prieurianin. Cells were harvested for luciferase assay 15-24 hrs later. Results are means±S.E. of triplicate experiments."}, "[2]": {"assay": "Body weight in leptin-receptor deficient db/db mice", "format": "in vivo", "procedure": "FIG. 15A. Groups of 10 db/db mice were given either 3 or 5 mg/kg of prieurianin i.p. daily for 30 days.\nThe effects of prieurianin were tested in three additional mouse models of obesity including the genetically hyperinsulinemic leptin-receptor deficient db/db, the Ceacam−/− glucose intolerant/diabetic, and the diet-induced obese mice. Prieurianin was administered intraperitoneally (i.p.) to 12-14 week-old db/db mice daily (3 or 5 mg/kg) for 30 days. The diet-induced obese Ceacam−/− diabetic mice were fed a high fat diet for 4 weeks for fattening, followed by prieurianin treatment (3 or 5 mg/kg) for 3 weeks. Vehicle treated controls received equivolume injections of Captisol (CyDex Inc., Lenexa, Kans.). Body weight and food intake were measured every three days, and blood samples were collected at the end of the experiment."}, "[3]": {"tested_on": "20-hydroxyecdysone activity", "details": "drosophila cells in culture; cited from earlier work"}, "[4]": {"tested_on": "PLTP", "assay": "Serum PLTP protein by Western blot in normal C57BL/6J mice", "format": "in vivo", "details": "normal C57BL/6J mice, 0, 2, 5 and 10 mg/kg", "procedure": "FIG. 10. Release of adiponectin and PLTP by preadipocytes and adipocytes, and in serum of normal mice. Preadipocytes (B and D) were treated with 2 μM of prieurianin and media collected after 36 hrs for Western blot analysis of either adiponectin (A and B) or PLTP (C and D). Alternatively, five days following differentiation, conditioned media of adipocyets (A and C) were collected for Western analysis. E. Serum of normal C57BL/6J mice given prieurianin or topotecan (0, 2, 5, and 10 mg/kg) was analyzed by Western blot for PLTP."}, "[5]": {"assay": "Body weight, food intake, serum parameters and adiposity in leptin-deficient ob/ob mice", "format": "in vivo", "procedure": "FIG. 4. Effects of prieurianin on blood insulin, glucose and NEFA levels. Normal and ob/ob mice were treated with 5 mg/kg of prieurianin and serum samples were then collected for (FIG. 4A) insulin; (FIG. 4B) glucose; and (FIG. 4C) non-esterified fatty acid (NEFA) profiling. Results are means of three animals per group for each treatment. Blue column, normal C57BL/6J; and red column, leptin-deficient ob/ob mice.\nFIG. 5. Effects of prieurianin on adiposity in ob/ob mice. The leptin-deficient ob/ob mice were treated with 5 mg/kg of prieurianin and subcutaneous and visceral adipose tissues were excised and weighed. Results are means of three to five animals per group as indicated (n).\nPrieurianin was administered intraperitoneally to 12-14 week-old normal C57BL/6J mice and the genetically leptin-deficient ob/ob mice (2 or 5 mg/kg) twice a week for two weeks. Controls received equivolume injections of drug vehicle. Body weight and food intake were measured every three days, and blood samples were collected at the end of the experiment.\nObesity contributes to hypertension, high serum cholesterol, low HDL cholesterol, and hyperglycemia, thus potentially leading to higher risk of cardiovascular disease. Abdominal obesity especially correlates with metabolic risk factors. The leptin-deficient ob/ob mice are hyperlipidemic, and hyperglycemic. To test whether prieurianin altered the metabolic or endocrinological parameters in addition to appetite, the serum lipid profile, insulin and glucose levels were measured.\nTo further examine the effects of prieurianin on the adiposity of the normal C57BL/6J and the ob/ob mice, we measured their visceral and subcutaneous body fat."}, "[6]": {"assay": "Diet-induced obese (DIO) C57BL/6J (B6) mice", "format": "in vivo", "procedure": "FIG. 16. Effects of prieurianin in diet-induced obese C57Bl/6J mice. B6 mice were put on 60% kcal high fat diet for approximately 15 weeks and then divided into groups of 10 and were then treated with either 1 (green) or 3 (brown) mg/kg of prieurianin daily intraperitoneally for three weeks compared to untreated (blue) or vehicle-treated (red) controls.\nFIG. 16A. Average weight changes of mice treated with prieurianin compared to controls through three weeks of treatment.\nFIG. 16B. Average food consumption in B6 mice treated with prieurianin as in FIG. 16A.\nFIG. 16C. Average weight changes in B6 mice treated with prieurianin on an “on-off” cyclical schedule for a total of 4 cycles described in the text. Results are the means S.E. of 10 animals per group, and the 3 mg/kg group with 20 mice.\nThe B6 mice were fed a 60% kcal high fat diet for approximately 15 weeks to gain weight and then treated with either 1 or 3 mg/kg of prieurianin intraperitoneally daily for 3 weeks. Mice continued to have access to the 60% kcal diet ad libitum during treatment.\nTo circumvent the problem of drug induced tolerance, a new protocol was developed where prieurianin treatment was stopped with the DIO mice, and the mice continued to be maintained on the high fat 60% kcal diet. Four weeks later, the mice were treated again with the following protocol: either 3 mg/kg of prieurianin for 5 days and followed by 5 days of drug holiday (no treatment), with the treatment repeated for 3 more cycles; or 5 mg/kg of prieurianin for 3 days and followed by 5 days of drug holiday, with the treatment repeated for 3 more cycles."}, "[7]": {"assay": "Cytotoxicity in cell culture studies", "format": "cell-based", "details": "data not shown"}, "[8]": {"assay": "Observation of overt toxicity in treated animals", "format": "in vivo", "details": "animals given the drug for the duration of the experiments"}}, "note": "Entries after “also recorded” stand apart in the source; their conditions may differ."}
{"smiles": "C=C1[C@@H]([C@@]2(C)[C@@H](OC(C)=O)CC(=O)O[C@](C)(COC(C)=O)[C@@H]2C(=O)OC)[C@@H](OC=O)[C@H](OC(=O)[C@H](O)[C@H](C)CC)[C@@]2(C)[C@H](c3ccoc3)CC(=O)[C@]12O", "note": "[prieurianin]", "values": [{"measurement": "transactivation potential of C/EBPβ", "setting": "[1]", "value": "inhibits the transactivation potential"}, {"measurement": "weight loss", "setting": "[2]; 3 or 5 mg/kg i.p. daily", "value": "No weight loss was observed"}, {"measurement": "attenuation of weight gain", "setting": "[2]; over three weeks, vs untreated or vehicle-treated controls", "value": 50, "unit": "%"}, {"measurement": "antagonism against 20-hydroxyecdysone activity", "setting": "[3]", "value": "antagonism against 20-hydroxyecdysone activity"}, {"measurement": "serum PLTP protein levels", "setting": "[4]", "value": "a rise in the serum PLTP protein levels"}, {"measurement": "serum PLTP activity", "setting": "[5]", "value": "decrease in serum PLTP activity"}, {"measurement": "NEFA levels", "setting": "[5]; 5 mg/kg", "value": "only a modest decrease in NEFA levels"}, {"measurement": "hyperglycemia (glucose level)", "setting": "[5]; 5 mg/kg", "value": "reversed to levels comparable to those of normal controls"}, {"measurement": "insulin levels", "setting": "[5]; 5 mg/kg", "value": "reduce by approximately three to four-fold"}, {"measurement": "subcutaneous and visceral adipose tissues", "setting": "[5]; 5 mg/kg", "value": "significantly reduced both the subcutaneous and visceral adipose tissues"}, {"measurement": "decrease in food intake", "setting": "[5]; 5 mg/kg group, relative to untreated or vehicle treated controls", "value": "≤ 50", "unit": "%"}, {"measurement": "reduction of total body fat", "setting": "[5]; 5 mg/kg, vs untreated and vehicle-treated controls", "value": "greater than 50%"}, {"measurement": "reduction in total body weight", "setting": "[5]; 2 or 5 mg/kg i.p. twice a week, after two weeks", "value": "up to 10%"}, {"measurement": "total cholesterol level", "setting": "[5]; serum", "value": "significantly lower"}, {"measurement": "triglyceride levels", "setting": "[5]; serum", "value": "no significant changes"}, {"measurement": "HDL levels", "setting": "[5]; vs untreated and vehicle-treated", "value": "approximately two-fold lower"}, {"measurement": "decrease in food consumption", "setting": "[6]; 1 or 3 mg/kg i.p. daily", "value": "70-80%"}, {"measurement": "weight loss of total body weight", "setting": "[6]; 1 or 3 mg/kg i.p. daily, within seven days of treatment", "value": "up to 10%"}, {"measurement": "body weight course after attained weight loss", "setting": "[6]; daily treatment for 3 weeks", "value": "gradual increase in body weight after week two"}, {"measurement": "decrease in body weight", "setting": "[6]; on-off cyclical schedule, 3 or 5 mg/kg, 4 cycles", "value": "up to 20%"}, {"measurement": "reduction of food consumption", "setting": "[6]; on-off cyclical treatment protocol", "value": "approximately 40%"}, {"measurement": "cytotoxicity", "setting": "[7]", "value": "relatively non-cytotoxic compared with topotecan; also recorded: relatively non-cytotoxic compared to topotecan"}, {"measurement": "overt toxicity", "setting": "[8]", "value": "no overt toxicity was observed"}]}
